Laboratory results published in ChEMBL document CHEMBL1136128, “3-(2-Benzyloxyphenyl)isoxazoles and isoxazolines: synthesis and evaluation as CFTR activators” (Bioorg Med Chem Lett, 2003).

Key:
[1] = target: Cystic fibrosis transmembrane conductance regulator (Rattus norvegicus) (UniProt P34158); test: Percent activity against CFTR (cystic fibrosis transmembrane conductance regulator) in rat relative to UCCF-152(50 uM)
[2] = target: Cystic fibrosis transmembrane conductance regulator (Rattus norvegicus) (UniProt P34158); test: Percent activity against CFTR (cystic fibrosis transmembrane conductance regulator) in rat relative to genistein(50 uM)

Sequence of Cystic fibrosis transmembrane conductance regulator (Rattus norvegicus) (P34158 whole entry): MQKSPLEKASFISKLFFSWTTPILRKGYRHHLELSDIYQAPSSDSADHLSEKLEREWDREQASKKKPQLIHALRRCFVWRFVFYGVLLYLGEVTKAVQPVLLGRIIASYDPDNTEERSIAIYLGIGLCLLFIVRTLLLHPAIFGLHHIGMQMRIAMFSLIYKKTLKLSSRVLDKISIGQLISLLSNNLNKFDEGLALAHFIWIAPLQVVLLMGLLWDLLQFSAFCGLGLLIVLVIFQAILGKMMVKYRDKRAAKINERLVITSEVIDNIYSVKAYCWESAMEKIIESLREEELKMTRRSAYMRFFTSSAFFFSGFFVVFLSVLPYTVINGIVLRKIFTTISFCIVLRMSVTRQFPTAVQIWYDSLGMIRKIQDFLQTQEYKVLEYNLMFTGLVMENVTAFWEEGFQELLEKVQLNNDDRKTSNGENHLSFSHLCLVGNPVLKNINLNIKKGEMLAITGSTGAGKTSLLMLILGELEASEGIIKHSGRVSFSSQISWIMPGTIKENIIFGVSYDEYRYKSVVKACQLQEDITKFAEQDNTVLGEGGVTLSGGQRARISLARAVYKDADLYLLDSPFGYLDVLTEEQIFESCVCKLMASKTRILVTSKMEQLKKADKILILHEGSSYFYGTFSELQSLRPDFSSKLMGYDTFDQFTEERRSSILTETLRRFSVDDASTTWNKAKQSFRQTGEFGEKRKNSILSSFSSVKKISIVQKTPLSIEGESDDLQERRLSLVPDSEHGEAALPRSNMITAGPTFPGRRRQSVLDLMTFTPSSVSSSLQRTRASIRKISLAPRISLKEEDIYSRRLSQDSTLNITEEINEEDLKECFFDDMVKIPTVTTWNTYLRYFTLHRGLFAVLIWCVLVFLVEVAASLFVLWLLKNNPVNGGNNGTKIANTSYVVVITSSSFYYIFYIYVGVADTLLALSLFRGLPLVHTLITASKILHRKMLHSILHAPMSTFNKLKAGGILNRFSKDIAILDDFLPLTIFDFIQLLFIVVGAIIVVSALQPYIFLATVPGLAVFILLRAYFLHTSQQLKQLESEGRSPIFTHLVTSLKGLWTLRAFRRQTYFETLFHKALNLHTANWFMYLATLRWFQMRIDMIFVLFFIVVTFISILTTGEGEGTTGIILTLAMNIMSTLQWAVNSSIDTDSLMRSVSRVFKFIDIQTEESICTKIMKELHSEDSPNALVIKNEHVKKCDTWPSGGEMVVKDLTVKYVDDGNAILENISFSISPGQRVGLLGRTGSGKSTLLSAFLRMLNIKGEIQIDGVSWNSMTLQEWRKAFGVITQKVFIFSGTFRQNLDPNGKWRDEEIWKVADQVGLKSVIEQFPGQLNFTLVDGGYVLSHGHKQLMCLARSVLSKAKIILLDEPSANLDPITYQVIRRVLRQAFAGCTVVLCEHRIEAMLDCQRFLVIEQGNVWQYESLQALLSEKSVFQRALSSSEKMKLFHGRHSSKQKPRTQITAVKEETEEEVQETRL

Compound | Activity [1] | Activity [2]
COc1ccc(COc2cccc(-c3cc(CCl)on3)c2)cc1 | 2% | 
COC(=O)c1cc(-c2ccccc2OCc2ccc(Br)cc2)no1 | 32% | 
COc1ccc(COc2ccccc2-c2cc(CO)on2)cc1 | 45% | 
COc1ccc(COc2ccccc2-c2cc(CCO)on2)cc1 | 46% | 
CCCCc1cc(-c2ccccc2OCc2ccc(OC)cc2)no1 | 8% | 
OCc1cc(-c2ccccc2OCc2ccc(Br)cc2)no1 | 39% | 
COc1cccc(COc2ccccc2C2=NOC(CO)C2)c1 (configuration not stated) | 29% | 
COc1ccc(COc2ccccc2C2=NOC(CCl)C2)cc1 (configuration not stated) | 61% | 
COc1cccc(COc2ccccc2C2=NOC(CCl)C2)c1 (configuration not stated) | 58% | 
COc1ccccc1-c1cc(CO)on1 | 22% | 
COC(=O)C1CC(c2ccccc2OCc2ccc(Br)cc2)=NO1 (configuration not stated) | 48% | 
COC(=O)c1onc(-c2ccccc2OCc2ccc(Br)cc2)c1C(=O)OC | 21% | 
COc1ccccc1-c1cc(CCl)on1 | 8% | 
COCc1cc(-c2ccccc2OCc2ccc(Br)cc2)no1 | 10% | 
COc1ccc(COc2ccc(-c3cc(CCl)on3)cc2)cc1 | 3% | 
ClCc1cc(-c2ccccc2OCc2ccccc2)no1 |  | 55%
COC(=O)C1CC(c2ccccc2OCc2cccc(OC)c2)=NO1 (configuration not stated) | 29% | 
OCCc1cc(-c2ccccc2OCc2ccc(Br)cc2)no1 | 106% | 
COc1ccc(COc2ccccc2C2=NOC(CO)C2)cc1 (configuration not stated) | 63% | 
COC(=O)C1CC(c2ccccc2OCc2ccc(OC)cc2)=NO1 (configuration not stated) | 64% | 
COc1ccc(COc2ccc(Br)cc2-c2cc(CO)on2)cc1 | 30% | 
COc1ccc(COc2ccccc2-c2cc(CCl)on2)cc1 | 72% | 
COc1cccc(COc2ccccc2-c2cc(CO)on2)c1 | 45% | 
COc1cccc(COc2ccccc2-c2cc(CCO)on2)c1 | 31% | 
COc1ccc(COc2ccc(Br)cc2-c2cc(CCl)on2)cc1 | 9% | 
COC(=O)C1CC(c2cc(Br)ccc2OCc2ccc(OC)cc2)=NO1 (configuration not stated) | 41% | 
ClCc1cc(-c2ccccc2OCc2ccc(Br)cc2)no1 | 25% | 
